Test results as given in patent US10138226B2, “Benzimidazol-2-amines as MIDH1 inhibitors” (Bayer Pharma Aktiengesellschaft, priority 2014, dated 2018).
pIC50: −log10 of the molar value.

Tested on: LN229 R132H cells overexpressing mutated isocitrate dehydrogenase (mIDH)
Experiment: Mutant IDH1 cellular assay (2-HG levels in medium)
Format: cell-based
Conditions: 2-HG in medium of LN229 R132H cells, 24 hours incubation, fluorescence readout
Experimental: Mutant IDH1 Cellular Assay
Levels of (2R)-2-hydroxyglutarate (2HG) were measured in medium of a cell line with overexpression of mutated isocitrate dehydrogenase (mIDH) protein. mIDH catalyzes the NADPH-dependent reduction of alpha-ketoglutarate to 2-HG. Cells (LN229 R132H, Mohrenz et al., Apoptosis (2013) 18:1416-1425) were grown in DMEM containing 10% FCS. They were harvested by trypsin and seeded into 96-well plates. Cells were incubated overnight at 37° C. in 5% CO2. The next day test compounds were added to each cell well. The final concentration of DMSO was 0.1% and DMSO controls were included. The plates were then placed in an incubator for 24 hours.
2-HG was measured according to Balss et al. (Acta Neuropathol (2012) 124: 883-891). Briefly, HClO4 was added to each well and the plates were centrifuged. Aliquots are removed and incubated with hydroxyglutarate dehydrogenase (HGDH), diaphorase, NAD+, and resazurin. The conversion of resazurin to resorufin was detected by fluorescence spectroscopy at Ex 540 nm Em 600 nm. The increase in fluorescence is proportional to 2-HG production. IC50 values are determined by interpolation from plots of relative fluorescence vs inhibitor concentration.

| Compound | pIC50 |
| --- | --- |
| C[C@@H]1C[C@H](n2c(Nc3ccc(OC(F)(F)F)cc3)nc3ccc(C(=O)N4CCOCC4)cc32)CC(C)(C)C1 (single isomer, unassigned; enantiomer a) [Example 2-16-1, morpholin-4-yl(2-{[4-(trifluoromethoxy)phenyl]amino}-1-[(cis)-3,3,5-trimethylcyclohexyl]-1H-benzimidazol-6-yl)methanone, enantiomer A] | 6.30 |

Same assay, conditions: Homo sapiens, LN-229, 24 h, 2-HG in medium of LN229 R132H cells, 24 hours incubation, fluorescence readout

| Compound | pIC50 |
| --- | --- |
| COC(=O)c1ccc2nc(Nc3ccc(OC(F)(F)F)cc3)n([C@H]3C[C@@H](C)CC(C)(C)C3)c2c1 (racemic) [Example 2-1, (±) methyl 2-{[4-(trifluoromethoxy)phenyl]amino}-1-[(cis)-3,3,5-trimethylcyclohexyl]-1H-benzimidazole-6-carboxylate] | 5.49 |
| COC(=O)c1ccc2nc(Nc3ccc(OC(F)(F)F)cc3)n([C@H]3C[C@H](C)CC(C)(C)C3)c2c1 (racemic) [Example 2-2, (±) methyl 2-{[4-(trifluoromethoxy)phenyl]amino}-1-[(trans)-3,3,5-trimethylcyclohexyl]-1H-benzimidazole-6-carboxylate] | 5.00 |
| COC(=O)c1ccc2nc(Nc3ccc(OC(F)(F)F)cc3)n([C@H]3C[C@@H](C)CC(C)(C)C3)c2c1 (single isomer, unassigned; enantiomer b) [Example 2-1-2, methyl 2-{[4-(trifluoromethoxy)phenyl]amino}-1-[(cis)-3,3,5-trimethylcyclohexyl]-1H-benzimidazole-6-carboxylate, enantiomer B] | 5.24 |

Target: IDH1 R132H enzyme (Homo sapiens (Human), UniProt O75874, R132H)
Sequence (O75874 whole entry R132H): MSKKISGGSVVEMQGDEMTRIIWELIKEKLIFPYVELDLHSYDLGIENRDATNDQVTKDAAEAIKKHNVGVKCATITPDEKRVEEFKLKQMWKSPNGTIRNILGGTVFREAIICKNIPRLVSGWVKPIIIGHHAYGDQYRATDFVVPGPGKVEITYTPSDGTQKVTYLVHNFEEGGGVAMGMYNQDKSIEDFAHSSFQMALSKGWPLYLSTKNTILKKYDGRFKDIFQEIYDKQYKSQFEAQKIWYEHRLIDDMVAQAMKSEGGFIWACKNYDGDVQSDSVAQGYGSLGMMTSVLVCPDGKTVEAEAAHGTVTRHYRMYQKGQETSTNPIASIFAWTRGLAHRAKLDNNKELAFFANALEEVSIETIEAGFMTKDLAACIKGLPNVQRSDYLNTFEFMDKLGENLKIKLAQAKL
Experiment: Mutant IDH1 R132H biochemical assay; also: 1.5 nM enzyme
Conditions: NADPH consumption, luminescent readout, 250 μM α-KG, 1 μM NADPH, 32° C., 30 minutes, test range 0.002-10 μM
Experimental: mIDH1 catalyzes the NADPH-dependent reduction of alpha-ketoglutarate (α-KG) to (2R)-2-hydroxyglutarate (2-HG). NADPH consumption was measured by luminescent readout.
The biochemical reactions were performed at 32° C. in 384-well plates using a reaction volume of 41 μl and the following assay buffer conditions: 50 mM Tris pH 7.5, 100 mM NaCl, 20 mM MgCl2, 0.05% BSA, 0.01% Brij, 1 μM NADPH, and 250 μM α-KG. […] Test compounds were used in a concentration range between 0.002 and 10 μM. The final DMSO concentration was 2.4%.
The reaction was incubated for 30 minutes, then 40 μl of detection mix (0.75 μg/ml Luciferase, 0.02 U/ml Oxidoreductase, 4 μg/ml FMN, 2 μl/ml Decanal/Ethanol, 50 mM Tris pH 7.5, 0.5% Glycerin, 0.01% Tween-20, 0.05% BSA) was added. Luminescence was measured on a luminescent reader (10 seconds measuring time, 1 second integration period, 30% sensitivity). The decrease in luminescence is proportional to mIDH1 activity. IC50 values are determined by interpolation from plots of relative luminescence versus inhibitor concentration.

| pIC50 | Compound |
| --- | --- |
| ≤ 5.00 | C[C@@H]1C[C@H](n2c(Nc3ccc(OC(F)(F)F)cc3)nc3ccc(C(=O)NC4CCCC4)cc32)CC(C)(C)C1 (racemic) [Example 2-5, (±) N-cyclopentyl-2-{[4-(trifluoromethoxy)phenyl]amino}-1-[(cis)-3,3,5-trimethylcyclohexyl]-1H-benzimidazole-6-carboxamide] |
| 6.37 | CNC(=O)c1ccc2nc(Nc3ccc(OC(F)(F)F)cc3)n([C@H]3C[C@@H](C)CC(C)(C)C3)c2c1 (racemic) [Example 2-8, (±) N-methyl-2-{[4-(trifluoromethoxy)phenyl]amino}-1-[(cis)-3,3,5-trimethylcyclohexyl]-1H-benzimidazole-6-carboxamide] |
| 5.18 | COC(=O)CNC(=O)c1ccc2nc(Nc3ccc(OC(F)(F)F)cc3)n([C@H]3C[C@@H](C)CC(C)(C)C3)c2c1 (racemic) [Example 2-10, (±) methyl N-[(2-{[4-(trifluoromethoxy)phenyl]amino}-1-[(cis)-3,3,5-trimethylcyclohexyl]-1H-benzimidazol-6-yl)carbonyl]glycinate] |
| 5.12 | C[C@@H]1C[C@H](n2c(Nc3ccc(OC(F)(F)F)cc3)nc3ccc(C(=O)N(C)CC(=O)O)cc32)CC(C)(C)C1 (racemic) [Example 2-11, (±) N-methyl-N-[(2-{[4-(trifluoromethoxy)phenyl]amino}-1-[(cis)-3,3,5-trimethylcyclohexyl]-1H-benzimidazol-6-yl)carbonyl]glycine] |
| 5.66 | C[C@@H]1C[C@H](n2c(Nc3ccc(OC(F)(F)F)cc3)nc3ccc(C(=O)NCCO)cc32)CC(C)(C)C1 (racemic) [Example 2-13, (±) N-(2-hydroxyethyl)-2-{[4-(trifluoromethoxy)phenyl]amino}-1-[(cis)-3,3,5-trimethylcyclohexyl]-1H-benzimidazole-6-carboxamide] |
| ≤ 5.00 | COC(=O)CCNC(=O)c1ccc2nc(Nc3ccc(OC(F)(F)F)cc3)n([C@H]3C[C@@H](C)CC(C)(C)C3)c2c1 (racemic) [Example 2-14, (±) methyl N-[(2-{[4-(trifluoromethoxy)phenyl]amino}-1-[(cis)-3,3,5-trimethylcyclohexyl]-1H-benzimidazol-6-yl)carbonyl]-β-alaninate] |
| ≤ 5.00 | C[C@@H]1C[C@H](n2c(Nc3ccc(OC(F)(F)F)cc3)nc3ccc(C(=O)NCCC(=O)O)cc32)CC(C)(C)C1 (racemic) [Example 2-15, (±) N-[(2-{[4-(trifluoromethoxy)phenyl]amino}-1-[(cis)-3,3,5-trimethylcyclohexyl]-1H-benzimidazol-6-yl)carbonyl]-β-alanine] |
| ≤ 5.00 | C[C@@H]1C[C@H](n2c(Nc3ccc(OC(F)(F)F)cc3)nc3ccc(C(=O)NS(C)(=O)=O)cc32)CC(C)(C)C1 (racemic) [Example 2-19, (±) N-(methylsulfonyl)-2-{[4-(trifluoromethoxy)phenyl]amino}-1-[(cis)-3,3,5-trimethylcyclohexyl]-1H-benzimidazole-6-carboxamide] |
| ≤ 5.00 | C[C@@H]1C[C@H](n2c(Nc3ccc(OC(F)(F)F)cc3)nc3ccc(C(=O)NCc4ccc(F)cc4)cc32)CC(C)(C)C1 (racemic) [Example 2-21, (±) N-(4-fluorobenzyl)-2-{[4-(trifluoromethoxy)phenyl]amino}-1-[(cis)-3,3,5-trimethylcyclohexyl]-1H-benzimidazole-6-carboxamide] |
| ≤ 5.00 | C[C@@H]1C[C@H](n2c(Nc3ccc(OC(F)(F)F)cc3)nc3ccc(C(=O)Nc4ccc(F)cc4)cc32)CC(C)(C)C1 (racemic) [Example 2-22, (±) N-(4-fluorophenyl)-2-{[4-(trifluoromethoxy)phenyl]amino}-1-[(cis)-3,3,5-trimethylcyclohexyl]-1H-benzimidazole-6-carboxamide] |
| ≤ 5.00 | C[C@@H]1C[C@H](n2c(Nc3ccc(OC(F)(F)F)cc3)nc3ccc(C(=O)NC4CC4)cc32)CC(C)(C)C1 (racemic) [Example 2-23, (±) N-cyclopropyl-2-{[4-(trifluoromethoxy)phenyl]amino}-1-[(cis)-3,3,5-trimethylcyclohexyl]-1H-benzimidazole-6-carboxamide] |
| ≤ 5.00 | CCOC(=O)CCN(C)C(=O)c1ccc2nc(Nc3ccc(OC(F)(F)F)cc3)n([C@H]3C[C@@H](C)CC(C)(C)C3)c2c1 (racemic) [Example 2-24, (±) ethyl N-methyl-N-[(2-{[4-(trifluoromethoxy)phenyl]amino}-1-[(cis)-3,3,5-trimethylcyclohexyl]-1H-benzimidazol-6-yl)carbonyl]-β-alaninate] |
| 6.33 | C[C@H]1C[C@H](n2c(Nc3ccc(OC(F)(F)F)cc3)nc3ccc(C(=O)N(C)C)cc32)CC(C)(C)C1 (racemic) [Example 2-25, (±) N,N-dimethyl-2-{[4-(trifluoromethoxy)phenyl]amino}-1-[(trans)-3,3,5-trimethylcyclohexyl]-1H-benzimidazole-6-carboxamide] |
| 6.04 | CNC(=O)c1ccc2nc(Nc3ccc(OC(F)(F)F)cc3)n([C@H]3C[C@@H](C)CC(C)(C)C3)c2c1 (single isomer, unassigned; enantiomer a) [Example 2-8-1, N-methyl-2-{[4-(trifluoromethoxy)phenyl]amino}-1-[(cis)-3,3,5-trimethylcyclohexyl]-1H-benzimidazole-6-carboxamide, enantiomer A] |
| ≤ 5.00 | C[C@@H]1C[C@H](n2c(Nc3ccc(OC(F)(F)F)cc3)nc3ccc(C(=O)NC4CC4)cc32)CC(C)(C)C1 (single isomer, unassigned; enantiomer a) [Example 2-23-1, N-cyclopropyl-2-{[4-(trifluoromethoxy)phenyl]amino}-1-[(cis)-3,3,5-trimethylcyclohexyl]-1H-benzimidazole-6-carboxamide, enantiomer A] |
| 5.92 | CNC(=O)c1ccc2nc(Nc3ccc(OC(F)(F)F)cc3)n([C@H]3C[C@@H](C)CC(C)(C)C3)c2c1 (single isomer, unassigned; enantiomer b) [Example 2-8-2, N-methyl-2-{[4-(trifluoromethoxy)phenyl]amino}-1-[(cis)-3,3,5-trimethylcyclohexyl]-1H-benzimidazole-6-carboxamide, enantiomer B] |
| ≤ 5.00 | C[C@@H]1C[C@H](n2c(Nc3ccc(OC(F)(F)F)cc3)nc3ccc(C(=O)NC4CC4)cc32)CC(C)(C)C1 (single isomer, unassigned; enantiomer b) [Example 2-23-2, N-cyclopropyl-2-{[4-(trifluoromethoxy)phenyl]amino}-1-[(cis)-3,3,5-trimethylcyclohexyl]-1H-benzimidazole-6-carboxamide, enantiomer B] |
